How the values were obtained:
[1] = test system: Primary human satellite cells (SC); experiment: Phase contrast microscopy of differentiating primary human satellite cells; assay type: cell-based; details: for Morphology of differentiating SC with respect to vehicle (DMSO) control: after 4 and 5 days of exposure to DM
Procedure: (§1) Primary human satellite cells (SC) were purchased from Innoprot Inc (Bizkaia-Spain) and propagated in a growth medium (GM) which contains essential and non-essential amino acids, vitamins, organic and inorganic compounds, hormones, growth factors, trace minerals and a low concentration of fetal bovine serum (5%) (Innoprot lnc/Bizkaia-Spain) in a humidified atmosphere of 95% air/5% CO2 at 37° C.
(§2) Exposure of proliferating satellite cells 4-5 days to a lower (from 10% to 0.1%) FBS concentration, plus the addition of 5 μg/ml insulin and 5 μg/ml transferrin (differentiation medium, DM), induced their differentiation into myotubes.
Differentiating primary human satellite cells were also examined in phase contrast mode by means of conventional light microscopy. […] In particular, after 5 days of incubation in the presence of phytocannabinoids, the cells appeared more fused and with mature myotubes being larger in size.

[2] = test system: Primary human satellite cells (SC); experiment: Human satellite cell differentiation, qPCR of Myog, Tnnt-1 and MyHC mRNA; assay type: cell-based; details: 5 days of SC exposure to DM, vs vehicle
Procedure: as §1, §2
As described in Example 1
To further investigate the effects of the cannabinoids CBD, CBDV and THCV on human skeletal muscle precursor cell differentiation qPCR analysis was used.
In particular, skeletal muscle cell differentiation was quantified by measuring the transcript levels of myogenin (Myog), Troponin (Tnnt-1) and Myosin Heavy Chain (MyHC). All of which are widely considered muscle-specific markers, required for myotube formation.

Mouse C2C12 myoblasts [3] = experiment: C2C12 myoblast differentiation, qPCR of Myog and Tnnt-1 mRNA; assay type: cell-based; details: 24 h in DM, C2C12 cells, vs vehicle
Procedure: (§3) Mouse C2C12 myoblasts were propagated in a growth medium (GM) composed of Dulbecco's modified Eagle's medium supplemented with 10% fetal bovine serum (FBS), 50 U/ml penicillin plus 50 μg/ml streptomycin, and 1% L-glutamine (Invitrogen, Milan, Italy), in a humidified atmosphere of 95% air/5% CO2 at 37° C.
(§4) Exposure of proliferating C2C12 cells for 24 to 72 h to a lower (from 10% to 0.1%) FBS concentration, plus the addition of 5 μg/ml insulin and 5 μg/ml transferrin (differentiation medium, DM), induced their differentiation into myotubes.
(§5) Total RNA was isolated from […] by use of the TRI-Reagent (Life Technology, Milan, Italy), reacted with DNase-I (1 U/μl; Sigma-Aldrich) following the manufacturer's instructions, and then quantified by spectrophotometric analysis.
[…]. Final preparation of RNA was considered DNA- and protein-free if the ratio between readings at 260/280 nm was >1.7. The purified mRNA was reverse-transcribed by use of reverse transcriptase (enzyme-VILO) (Life Technology, Milan, Italy). Quantitative real-time PCR was carried out in CFX384 real time
(§6) PCR detection system (Bio-Rad, Segrate MI, Italy) with specific primers by the use of SYBR Green detection (Bio-Rad, Segrate MI, Italy). Samples were amplified simultaneously in quadruplicate in one-assay run with a non-template control blank for each primer pair to control for contamination or primer-dimers formation, and the ct (cycle threshold) value for each experimental group was determined.
(§7) The housekeeping genes (the ribosomal protein S16) has been used as an internal control to normalize the ct values, using the 2-dCt formula; differences in mRNA content between groups were as expressed as 2-ddct, as previously described (Iannotti et al. 2013)
In order to gain information about the potential effects of phytocannabinoids on myoblast differentiation, C2C12 cells were induced to differentiate for 24-48 h in DM in the presence or absence of various phytocannabinoids.
qPCR analysis was then utilized to evaluated the expression level of the canonical developmentally regulated skeletal markers Myog and Tnnt-1.

[4] = Body mass of mdx mice over 16 weeks; assay type: in vivo, mouse; details: for Total body mass / Total body mass, difference to vehicle: at week 15, CBD 120 mg/kg/day, DFZ 1.2 mg/kg/day
Procedure: (§8) Mdx mice were bred and housed according to Home Office regulations. At 6 weeks of age groups of female mdx mice (control n=18, deflazcort n=18, CBD n=19) were acclimatised to 3.5% Kolliphor/water (v/v) in drinking water.
(§9) Control groups were maintained on 3.5% Kolliphor for the duration of the study. Deflazacort (DFZ) groups were maintained on 3.5% Kolliphor for 2 weeks and then maintained on 1.2 mg/kg/day DFZ in 3.5% Kolliphor for 16 weeks (n=8).
(§10) CBD groups were acclimatised to 3.5% Kolliphor for 7 days. On day 7, 3.5% Kolliphor was supplemented with CBD at 75 mg/kg/day for 3 days; CBD was then increased to 120 mg/kg/day for 16 weeks (n=8).
Mice and bottles were weighed twice weekly to monitor body mass and consumption. Mice are housed in groups, therefore average consumption is calculated.

Mouse C2C12 myoblasts [5] = experiment: Western blot analysis of MyHC protein in differentiating C2C12 cells; assay type: cell-based; details: 72 h exposure to DM+1 μM CBD, relative to control conditions
Procedure: as §3, §4
Cells were washed two times in cold PBS and lysed with lysis solution (150 mM NaCl, 1 mM EDTA, pH 7.4, 10 mM Tris-HCl, pH 8, 1% SDS, and protease inhibitors). Lysates (50-60 ug) were boiled 5 min in Laemmli SDS loading buffer and separated by 8% SDS-polyacrylamide gel electrophoresis. Filters were incubated overnight at 4° C. with a mouse anti-MyHC (dilution, 1:1000; Millipore).
An anti-tubulin antibody (dilution, 1:5000; Sigma-Aldrich) was used to check for equal protein loading. Reactive bands were detected by chemiluminescence (ECL-plus; GE Healthcare). Images were analysed on a ChemiDoc station with Quantity one software (Bio-Rad, Segrate, Italy).
The effect of CBD 1 μM on myotube formation was confirmed by western blot analysis.

Mouse C2C12 myoblasts [6] = experiment: Short-term (10 min) CBD exposure of differentiating C2C12 myoblasts, qPCR; assay type: cell-based; details: DM+1 μM for 10 min
Procedure: as §3, §4, §5, §6, §7
The potential effect of short term CBD exposure at 1 μM on differentiating C2C12 cells was also tested.
The day after plating, C2C12 myoblasts were exposed to DM in presence or not of 1 μM CBD for 10 min.

Mdx mice [7] = experiment: CD8 positive cells in spleens of mdx mice at week 4; assay type: in vivo, mouse; details: spleen
Procedure: as §8, §9, §10
Spleens were recovered at week 4 and CD8 positive cells were analysed.

Mdx mice [8] = experiment: Real time PCR of gastrocnemius muscle of mdx mice at week 4; assay type: in vivo, mouse
Procedure: as §8, §9, §10
Gastrocnemius muscle was recovered at week 4 and relative gene expressions were determined.
RNA was extracted from cells following treatment with CBD. Control RNA was extracted from the control group (RNeasy kit, Qiagen). 2 μg of RNA from each sample was reversed transcribed using oligo dT primers (rt nanoscript 2, Primer Design).
Stable endogenous control genes (Pak1lip1, Htatfs1) were identified using the mouse GeNorm Kit qbase+software (Primer Design).
Real time PCR was conducted using SYBR green (Life Technologies) on an AB Biosystems Thermocycler. All real time PCR experiments were conducted with the following reaction conditions. Initial 95° C. 10 mins, followed by 40 cycles of 95° C. for 15 secs, 60° C. for 1 min, followed by melt curve analysis.
Relative levels of gene expression were determined using the standard curve method and are expressed relative to the average of the endogenous controls.

Structure (SMILES)	Morphology of differentiating SC with respect to vehicle (DMSO) control ([1]; 3 μM)	MyHC transcript level ([2]; 3 μM)	Myog transcript level ([2]; 3 μM)	Tnnt-1 transcript level ([2]; 3 μM)	Myogenin (Myog) mRNA expression level (Mouse C2C12 myoblasts [3]; 1 μM)	Troponin (Tnnt-1) mRNA expression level (Mouse C2C12 myoblasts [3]; 1 μM)	Myogenin (Myog) mRNA expression level (Mouse C2C12 myoblasts [3]; 3 μM)	Troponin (Tnnt-1) mRNA expression level (Mouse C2C12 myoblasts [3]; 3 μM)	Total body mass [4]	Total body mass, difference to vehicle [4]	further results
C=C(C)[C@@H]1CCC(C)=C[C@H]1c1c(O)cc(CCC)cc1O [CBDV, Cannabidivarin]	clear morphological differences	significantly increased	significantly increased	significantly increased	significant increase	significant increase	significant increase	significant increase			
C=C(C)[C@@H]1CCC(C)=C[C@H]1c1c(O)cc(CCCCC)c(C(=O)O)c1O [CBDA, Cannabidiolic acid]					significantly reduced	significantly reduced	significantly reduced	significantly reduced			
C=C(C)[C@@H]1CCC(C)=C[C@H]1c1c(O)cc(CCCCC)cc1O [CBD, Cannabidiol]					significant increase	significant increase			29.42 g	5.6%	Total body mass compared with vehicle group ([4]; up to week 4, CBD 120 mg/kg/day in drinking water): did not differ; Myosin Heavy Chain (MyHC) protein expression (Mouse C2C12 myoblasts [5]): significantly increased; Myog transcript level (Mouse C2C12 myoblasts [6]; then DM without drug for 3 h): significantly higher; Tnnt-1 transcript level (Mouse C2C12 myoblasts [6]; then DM without drug for 3 h): significantly higher; Myog transcript level (Mouse C2C12 myoblasts [6]; then DM without drug for 24 h): significantly higher; Tnnt-1 transcript level (Mouse C2C12 myoblasts [6]; then DM without drug for 24 h): significantly higher; Morphology of differentiating SC with respect to vehicle (DMSO) control ([1]; 1 μM): clear morphological differences; MyHC transcript level ([2]; 1 μM): significantly increased; Myog transcript level ([2]; 1 μM): significantly increased; Tnnt-1 transcript level ([2]; 1 μM): significantly increased; Total percentage CD8 population, difference to vehicle (Mdx mice [7]; n=9): 19.7%; Total percentage CD8 population (Mdx mice [7]; n=9, vehicle 10.9%): 8.7%; Mitochondrially encoded NADH dehydrogenase 2 (MT-ND2) relative gene expression, upregulation (Mdx mice [8]; n=4): 253.2%; PGC1a relative gene expression, upregulation (Mdx mice [8]; n=9): 125.8%; Sirtuin-1 (Sirt1) relative gene expression, upregulation (Mdx mice [8]; n=9): 84.9%
CCCc1cc(O)c2c(c1)OC(C)(C)[C@@H]1CCC(C)=C[C@@H]21 [THCV, Tetrahydrocannabivarin]	clear morphological differences	significantly increased	significantly increased	significantly increased	did not produced significant effects	did not produced significant effects	did not produced significant effects	did not produced significant effects			Cell fusion and size of mature myotubes ([1]; after 5 days of incubation, CBD 1 μM, CBDV and THCV 3 μM): more appreciable
CC(=O)OCC(=O)[C@@]12N=C(C)O[C@@H]1C[C@H]1[C@@H]3CCC4=CC(=O)C=C[C@]4(C)[C@H]3[C@@H](O)C[C@@]12C [deflazacort, Deflazacort, reference compound]									26.26 g	15.8%	Total body mass, lighter than vehicle and CBD groups ([4]; up to week 4, deflazacort 1.2 mg/kg/day in drinking water): 8.9%; Effect on total percentage CD8 population (Mdx mice [7]): unaffected
CCCCCc1cc(O)c(C/C=C(\C)CCC=C(C)C)c(O)c1 [CBG, Cannabigerol]							significantly reduced	significantly reduced			
